Assay results from US20140088034A1, “NITRIC OXIDE/cGMP PATHWAY INHIBITION OF VLA-4 RELATED CELL ADHESION” (STC.UNM, priority 2011, published 2014).
Read-outs that look alike come from different tables or passages of the source.

How the values were obtained:
VLA-4 [1] = molecular target: T1, VLA-4 (Homo sapiens, UniProt P05556+P13612); assay: LDV-FITC equilibrium binding to VLA-4 (Kd and calculated receptor occupancy)
From the text: Previously, we described and characterized in detail a model ligand an LDV-FITC containing small molecule ([14, 42-44], and references therein) for the detection of VLA-4 conformational regulation. This VLA-4 specific fluorescent probe was based on a highly specific α4β1-integrin inhibitor BIO1211, which contains the Leu-Asp-Val (LDV) ligand binding motif from the alternatively spliced connecting segment-1 (CS-1) peptide of cellular fibronectin [17, 45]. We established that integrin affinity changes, detected using this probe, vary in parallel with the natural VLA-4 ligand, human VCAM-1 [46]. For real-time detection of rapid integrin conformational changes, cells were treated with LDV-FITC (FIG. 2, first arrow), which was added after establishing a baseline for unstained cells, indicated on FIG. 2A as “autofluorescence”. Next, data were acquired for 2-3 minutes, and cells were activated with fMLFF (high affinity FPR ligand), CXCL12/SDF-1 (CXCR4 ligand), or CXCL8/IL-8 (CXCR2 ligand), for FPR, CXCR4, CXCR2 transfected cells, respectively (FIGS. 2A, B, and C). […] The change in occupancy was detected as a rapid increase in the mean channel fluorescence (MCF). This signal increase was sustained for the case of a non-desensitizing mutant of FRP (FIG. 2A), and reversible for the wild-type receptors (CXCR4, and CXCR2, FIG. 2B,C). Next, cells were treated with the nitric oxide donor, or vehicle (control). Acquisition was re-established, and data were acquired continuously for up to 720-840 s. […] In the absence of receptor desensitization, the effect of nitric oxide was more evident in cells transfected with a non-desensitizing mutant of FPR (vehicle, FIG. 2A). However, the effect of the nitric oxide donor was statistically significant for both wild-type GPCRs. […] To emphasize statistically the difference between control and experimental samples, standard errors of mean are indicated using error bars for every experimental point in FIG. 2B, 2C, 2D, 2E.
Kinetic analysis of the binding and dissociation of the LDV-FITC probe was described previously. […]

VLA-4 [2] = molecular target: T1, VLA-4; details: cited from earlier work
VLA-4 [3] = molecular target: T1, VLA-4; assay: Kinetic dissociation rate (koff) analysis of LDV-FITC probe on U937 cells with non-desensitizing FPR mutant; type: cell-based; details: U937 FPR ΔST, LDV-FITC 25 nM, LDV block 2 μM
Method: The experiment involved sequential addition of BAY 41-2272 (100 μM, guanylyl cyclase activator) or vehicle (control) at the 0 time point, and the fluorescent LDV-FITC probe (4 nM), and CXCL8/IL-8 (20 nM) (arrows). Excess unlabelled competitor LDV (1 μM) added at the end of the experiment to determine the non-specific binding of the probe. This experiment is analogous to the one shown in panel B. One representative experiment of two experiments is shown. Curves are means of two independent determinations calculated on a point-by-point basis (n=2). […] D, Kinetic analysis of binding and dissociation of LDV-FITC probe on U937 cells stably transfected with the non-desensitizing mutant of FPR. Cells were sequentially treated with the LDV-FITC probe (25 nM, near saturation), the Gαi-coupled receptor ligand (fMLFF, 100 nM), BAY 41-2272 (guanylyl cyclase activator, 50 μM) (arrows). At time points indicated by arrows, cells were treated with excess unlabeled LDV containing small molecule (2 μM), and the dissociation of the fluorescent molecule was followed. Dissociation rate constants (koff) were obtained by fitting dissociation curves to a single exponential decay equation (as described in the text). Experiments shown in the different panels were performed using different instruments, and therefore MCF values are not identical. E, Dissociation rate values, obtained in experiments analogous to panel B, summarized as a bar graph showing mean and SEM (n=4). Colors of the dissociation curves in panel D and bars on panel E are matching. The difference between koffs for “resting” and “fMLFF activated”, and between “fMLFF activated” and “fMLFF activated and treated with BAY 41-2272” is statistically significant (P=0.0006<0.05) as calculated by one-way analysis of variance (ANOVA) using GraphPad Prism software. […]
Next, the regions of the ligand-binding curves corresponding to the dissociation of the LDV-FITC probe were fitted to a single exponential decay equation. […] The affinity state induced by guanylyl cyclase activator was quantitatively similar to the resting state before activation. […]

[4] = 4 nM probe, calculated based on the one site binding equation

T1 sequence (P13612 34-1032): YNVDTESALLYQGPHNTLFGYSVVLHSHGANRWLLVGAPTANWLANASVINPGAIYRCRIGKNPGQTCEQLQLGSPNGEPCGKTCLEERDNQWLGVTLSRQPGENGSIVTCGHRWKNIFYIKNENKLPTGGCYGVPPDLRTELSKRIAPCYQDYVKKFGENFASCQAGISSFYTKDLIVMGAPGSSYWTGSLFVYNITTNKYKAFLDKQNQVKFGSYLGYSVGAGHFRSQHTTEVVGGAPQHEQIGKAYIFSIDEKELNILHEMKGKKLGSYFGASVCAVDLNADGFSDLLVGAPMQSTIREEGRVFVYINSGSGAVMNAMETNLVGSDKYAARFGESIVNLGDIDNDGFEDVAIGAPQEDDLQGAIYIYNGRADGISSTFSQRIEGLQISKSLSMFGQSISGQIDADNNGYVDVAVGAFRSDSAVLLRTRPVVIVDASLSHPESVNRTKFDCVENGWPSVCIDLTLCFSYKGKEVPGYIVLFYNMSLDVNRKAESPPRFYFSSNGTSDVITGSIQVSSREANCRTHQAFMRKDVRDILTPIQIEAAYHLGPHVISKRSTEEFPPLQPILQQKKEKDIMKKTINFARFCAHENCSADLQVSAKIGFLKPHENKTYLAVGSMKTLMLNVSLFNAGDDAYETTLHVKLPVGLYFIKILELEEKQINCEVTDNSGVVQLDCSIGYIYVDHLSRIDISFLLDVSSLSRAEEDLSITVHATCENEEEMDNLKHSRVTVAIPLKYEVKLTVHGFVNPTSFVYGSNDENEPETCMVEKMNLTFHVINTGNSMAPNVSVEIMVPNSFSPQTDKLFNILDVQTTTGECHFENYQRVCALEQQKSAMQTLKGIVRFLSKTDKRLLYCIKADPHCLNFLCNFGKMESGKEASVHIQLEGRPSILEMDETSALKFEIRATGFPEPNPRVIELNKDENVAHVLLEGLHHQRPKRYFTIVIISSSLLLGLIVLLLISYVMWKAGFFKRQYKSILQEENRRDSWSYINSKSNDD
T1 sequence (P05556 21-798): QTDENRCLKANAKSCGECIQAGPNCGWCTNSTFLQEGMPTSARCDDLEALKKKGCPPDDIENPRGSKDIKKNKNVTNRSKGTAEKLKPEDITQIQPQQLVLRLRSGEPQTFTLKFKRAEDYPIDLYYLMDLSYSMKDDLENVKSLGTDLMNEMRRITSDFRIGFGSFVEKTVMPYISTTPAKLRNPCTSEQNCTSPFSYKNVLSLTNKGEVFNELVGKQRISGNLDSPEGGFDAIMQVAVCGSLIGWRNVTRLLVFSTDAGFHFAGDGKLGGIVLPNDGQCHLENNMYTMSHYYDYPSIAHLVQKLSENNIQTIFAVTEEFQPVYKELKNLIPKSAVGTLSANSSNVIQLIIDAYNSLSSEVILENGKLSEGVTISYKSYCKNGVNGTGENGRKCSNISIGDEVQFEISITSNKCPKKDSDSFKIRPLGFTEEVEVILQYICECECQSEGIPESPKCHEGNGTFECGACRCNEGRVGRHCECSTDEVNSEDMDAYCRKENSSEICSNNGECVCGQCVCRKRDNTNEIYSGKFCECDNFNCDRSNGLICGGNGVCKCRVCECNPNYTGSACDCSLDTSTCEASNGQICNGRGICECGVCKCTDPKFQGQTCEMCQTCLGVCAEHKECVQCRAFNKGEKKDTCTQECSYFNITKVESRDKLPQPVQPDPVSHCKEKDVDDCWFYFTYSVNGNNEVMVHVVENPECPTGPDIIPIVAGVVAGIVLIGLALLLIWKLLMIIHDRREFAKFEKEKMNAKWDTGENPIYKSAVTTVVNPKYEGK

With “4-((N′-2-methylphenyl)ureido)-phenylacetyl-L-leucyl-L-aspartyl-L-valyl-L-prolyl-L-alanyl-L-alanyl-L-lysine-FITC [LDV-FITC]” the “receptor occupancy, high affinity state” value (VLA-4 [1]; [4]) was 70-80%, the “receptor occupancy, low affinity state” value (VLA-4 [1]; [4]) was ~25% and the “sites occupied before activation” value (VLA-4 [1]; 25 nM probe, low affinity state) was ~70%. For the same substance, the Kd (VLA-4 [2]; physiologically activated VLA-4, high affinity state, read-out: Kd for physiologically activated VLA-4 (high affinity state)) was 1 to 2 nM, the Kd (VLA-4 [2]; resting VLA-4, low affinity state, read-out: Kd for binding to resting VLA-4 (low affinity state)) was ~12 nM and the “dissociation rate constant koff of LDV-FITC, resting cells” value (VLA-4 [3]; at rest) was ~0.04 ± 0.001 s⁻¹. The “dissociation rate constant koff of LDV-FITC after cell activation by fMLFF” value (VLA-4 [3]; fMLFF 100 nM) was ~0.018 ± 0.0001 s⁻¹.
